Laboratory results published in ChEMBL document CHEMBL4152218, “Novel hydrazide-hydrazone and amide substituted coumarin derivatives: Synthesis, cytotoxicity screening, microarray, radiolabeling and in vivo pharmacokinetic studies” (Eur J Med Chem, 2018).
The source made the active and inactive calls. The calls are words filed in the database; no cut-off is given here.

Legend:
[1] = Selectivity index, ratio of IC50 for hTERT-BJ cells to IC50 for human PANC1 cells; type: toxicity; settings: hTERT-BJ cells versus PANC1 cells, read-out: Ratio IC50
[2] = tested on: TERT-RPE1; assay: Cytotoxicity against hTERT-RPE1 cells after 48 hrs by resazurin dye-based fluorescence assay; type: cell-based; settings: Homo sapiens, RPE-1, 48 h
[3] = tested on: HepG2; assay: Effect on AKR1B10 gene expression in human HepG2 cells at IC50 after 48 hrs by microarray analysis; type: functional, cell-based
[4] = tested on: HepG2; assay: Effect on GST A2 gene expression in human HepG2 cells at IC50 after 48 hrs by microarray analysis; type: functional, cell-based
[5] = tested on: HepG2; assay: Effect on MYO 10 gene expression in human HepG2 cells at IC50 after 48 hrs by microarray analysis; type: functional, cell-based
[6] = tested on: PANC-1; assay: Effect on CLDN14 gene expression in human PANC1 cells at IC50 after 48 hrs by microarray analysis; type: functional, cell-based
[7] = tested on: PANC-1; assay: Effect on CYP3A4 gene expression in human PANC1 cells at IC50 after 48 hrs by microarray analysis; type: ADME, cell-based; settings: panc-1, 48 h
[8] = tested on: PANC-1; assay: Effect on FEZ1 gene expression in human PANC1 cells at IC50 after 48 hrs by microarray analysis; type: functional, cell-based
[9] = tested on: PANC-1; assay: Effect on GLULP2 gene expression in human PANC1 cells at IC50 after 48 hrs by microarray analysis; type: functional, cell-based
[10] = tested on: PANC-1; assay: Effect on HIST1H4C gene expression in human PANC1 cells at IC50 after 48 hrs by microarray analysis; type: functional, cell-based
[11] = tested on: PANC-1; assay: Effect on LOC407835 gene expression in human PANC1 cells at IC50 after 48 hrs by microarray analysis; type: functional, cell-based
[12] = tested on: PANC-1; assay: Effect on MATK gene expression in human PANC1 cells at IC50 after 48 hrs by microarray analysis; type: functional, cell-based
[13] = tested on: PANC-1; assay: Effect on PCNA gene expression in human PANC1 cells at IC50 after 48 hrs by microarray analysis; type: functional, cell-based
[14] = tested on: PANC-1; assay: Effect on RNF151 gene expression in human PANC1 cells at IC50 after 48 hrs by microarray analysis; type: functional, cell-based
[15] = tested on: PANC-1; assay: Effect on SDR16C5 gene expression in human PANC1 cells at IC50 after 48 hrs by microarray analysis; type: functional, cell-based
[16] = tested on: PANC-1; assay: Effect on YY1 gene expression in human PANC1 cells at IC50 after 48 hrs by microarray analysis; type: functional, cell-based
[17] = tested on: TERT-RPE1; assay: Cytotoxicity against hTERT-RPE1 cells at 6.25 uM after 48 hrs by resazurin dye-based fluorescence assay relative to control; type: cell-based; settings: human, tert-rpe1, 48 h

O=C(N/N=C/c1cc2ccccc2nc1Cl)c1cc2cc(Br)ccc2oc1=O
selectivity ratio [1]: > 9.18
IC50 [2]: > 50 µM
Activity [3]: Active
Activity [4]: Active
Activity [5]: Active
Activity [6]: Active
Activity [7]: Active
Activity [8]: Active
Activity [9]: Active
Activity [10]: Active
Activity [11]: Active
Activity [12]: Active
Activity [13]: Active
Activity [14]: Active
Activity [15]: Active
Activity [16]: Active
Activity [17]: 0.94%
